“Also recorded” adds a separate entry of the source. Read-outs that look alike come from different tables or passages of the source.
What was measured:
hABHD12 = target: T1, hABHD12 (Homo sapiens, UniProt Q8N2K0); assay: Fluorescent glycerol assay of 1-AG hydrolysis in hABHD12-HEK293 lysates; format: biochemical; conditions: for remaining activity at 10 µM: read-out: Remaining activity at 10 µM % ± s.e.m.; for inhibition at 10 µM: read-out: inhibition of hABHD12 at 10 µM; for Emax: read-out: max inhibition (converted)
T1 construct: expressed in transfected cells; host or cells: HEK293 (transient)
T1 sequence (Q8N2K0 1-398): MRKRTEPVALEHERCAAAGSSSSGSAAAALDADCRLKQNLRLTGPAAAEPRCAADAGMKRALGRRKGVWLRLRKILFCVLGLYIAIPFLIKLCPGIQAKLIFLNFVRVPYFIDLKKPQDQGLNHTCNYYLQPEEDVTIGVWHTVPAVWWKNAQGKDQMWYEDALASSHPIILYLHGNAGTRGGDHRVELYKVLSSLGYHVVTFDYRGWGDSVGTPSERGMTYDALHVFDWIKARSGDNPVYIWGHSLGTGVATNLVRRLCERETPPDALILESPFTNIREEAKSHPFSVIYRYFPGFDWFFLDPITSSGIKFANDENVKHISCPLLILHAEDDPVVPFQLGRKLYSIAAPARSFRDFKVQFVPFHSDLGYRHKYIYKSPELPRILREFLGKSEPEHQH
Protocol: (§1) Glycerol liberated from 1-AG hydrolysis was determined with a sensitive fluorescent assay using lysates of HEK293 cells with transient overexpression of hABHD12, hABHD6 or hMAGL, essentially as previously described. […] Fluorescence (λex 530; λem 590 nm) was monitored using a Tecan Infinite M200 plate reader (Tecan Group Ltd., Männedorf, Switzerland). Inhibitory activities of selected compounds towards FAAH were determined using membranes of hFAAH overexpressing COS-7 cells, essentially as previously described. The final incubation volume (100 µL) contained 1 µg of protein and the substrate concentration was 20 µM (10 nM of ^3H-anandamide having specific activity of 60 Ci/mmol and concentration of 1 mCi/mL).

hMAGL = target: T2, hMAGL (Homo sapiens, UniProt Q99685); assay: Fluorescent glycerol assay in hMAGL-HEK293 lysates; format: biochemical; conditions: read-out: inhibition of MAGL at 10 µM
T2 construct: expressed in transfected cells; host or cells: HEK293 (transient)
T2 sequence (Q99685 1-303): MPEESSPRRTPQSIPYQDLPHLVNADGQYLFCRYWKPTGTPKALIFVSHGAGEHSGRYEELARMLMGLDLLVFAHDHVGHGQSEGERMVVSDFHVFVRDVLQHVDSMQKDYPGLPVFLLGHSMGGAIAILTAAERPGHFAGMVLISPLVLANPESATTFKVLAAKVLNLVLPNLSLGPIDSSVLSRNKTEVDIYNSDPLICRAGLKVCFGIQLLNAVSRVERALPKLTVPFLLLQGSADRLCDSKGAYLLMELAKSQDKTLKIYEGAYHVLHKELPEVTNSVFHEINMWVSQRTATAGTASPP
Protocol: as §1

[1] = hABHD12-HEK293 lysates, 10 µM, NI = no inhibition
[2] = hABHD12-HEK293 lysates, three independent experiments, read-out: -logIC50±s.e.m. (converted)
[3] = hABHD12-HEK293 lysates, read-out: IC50

SMILES | remaining activity at 10 µM (hABHD12; [1]) [%] | also measured
C=C(C)[C@@H]1CC[C@]2(C=O)CC[C@]3(C)[C@H](CC[C@@H]4[C@@]5(C)Cc6cnoc6C(C)(C)[C@@H]5CC[C@]43C)[C@@H]12 [Compound 38] | 84 ± 1.6 | hABHD12 inhibitory activity (in words) (hABHD12): poor inhibitory activity; also recorded: complete loss of the inhibitory activity
C=C(C)[C@@H]1CC[C@]2(COC(=O)/C=C/c3ccccc3)CC[C@]3(C)[C@H](CC[C@@H]4[C@@]5(C)CC[C@H](O)C(C)(C)[C@@H]5CC[C@]43C)[C@@H]12 [Compound 26] | > 100 | 
C=C(C)[C@@H]1CC[C@]2(C(=O)O)CC[C@]3(C)[C@H](CC[C@@H]4[C@@]5(C)Cc6ncccc6C(C)(C)[C@@H]5CC[C@]43C)[C@@H]12 [Compound 40, Lupa-2,20(29)-dieno[2,3-b]pyridin-28-oic acid] | 66 ± 1.1 | inhibition at 10 µM (hABHD12): 34%
CC1=C(O)C(=O)C=C2C1=CC=C1[C@@]2(C)CC[C@@]2(C)[C@@H]3C[C@](C)(C(=O)O)CC[C@]3(C)CC[C@]12C [Compound 14, Celastrol, reference compound] | > 100 | 
C=C(C)[C@@H]1CC[C@]2(C=O)CC[C@]3(C)[C@H](CC[C@@H]4[C@@]5(C)CC[C@H](O)C(C)(C)[C@@H]5CC[C@]43C)[C@@H]12 [Compound 16] | 71 ± 0.8 | inhibition at 10 µM (hABHD12): ~30%
C=C(C)[C@@H]1CC[C@]2(C(=O)NCCC)CC[C@]3(C)[C@H](CC[C@@H]4[C@@]5(C)CCC(=O)C(C)(C)[C@@H]5CC[C@]43C)[C@@H]12 [Compound 20] | 84 ± 1.5 | 
CC1(C)CC[C@]2(C)CC[C@]3(C)C(=CC[C@@H]4[C@@]5(C)CC[C@H](O)C(C)(C)[C@@H]5CC[C@]43C)[C@@H]2C1 [Compound 10, β-Amyrin, reference compound] | > 100 | 
CC1(C)CC[C@]2(C(=O)O)CC[C@]3(C)C(=CC[C@@H]4[C@@]5(C)CC[C@H](O)C(C)(C)[C@@H]5CC[C@]43C)[C@@H]2C1 [Compound 7, Oleanolic acid, reference compound] | ~20 | 
C=C(C)[C@@H]1CC[C@]2(C(N)=O)CC[C@]3(C)[C@H](CC[C@@H]4[C@@]5(C)Cc6nccnc6C(C)(C)[C@@H]5CC[C@]43C)[C@@H]12 [Compound 43] | 69 ± 0.8 | 
C=C(C)[C@@H]1CC[C@]2(C)CC[C@]3(C)[C@H](CC[C@@H]4[C@@]5(C)CC[C@H](O)C(C)(C)[C@@H]5CC[C@]43C)[C@@H]12 [Compound 3, Lupeol, reference compound] | > 100 | 
C=C(C)[C@@H]1CC[C@]2(CO)CC[C@]3(C)[C@H](CC[C@@H]4[C@@]5(C)CC[C@H](OC(C)=O)C(C)(C)[C@@H]5CC[C@]43C)[C@@H]12 [Compound 30] | > 100 | 
C=C(C)[C@@H]1CC[C@]2(C(=O)N3CCCC3)CC[C@]3(C)[C@H](CC[C@@H]4[C@@]5(C)CCC(=O)C(C)(C)[C@@H]5CC[C@]43C)[C@@H]12 [Compound 21] | 80 ± 0.3 | 
C=C(C)[C@@H]1CC[C@]2(CO)CC[C@]3(C)[C@H](CC[C@@H]4[C@@]5(C)CC[C@H](O)C(C)(C)[C@@H]5CC[C@]43C)[C@@H]12 [Compound 2, Betulin, reference compound] | ~75 | 
COC(=O)[C@]12CCC(C)(C)C[C@H]1[C@H]1C(=O)C=C3[C@@]4(C)C=C(C#N)C(=O)C(C)(C)[C@@H]4CC[C@@]3(C)[C@]1(C)CC2 [Compound 13, CDDO methyl ester, reference compound] | > 100 | 
C[C@H]1[C@H](C)CC[C@]2(C)CC[C@]3(C)C(=CC[C@@H]4[C@@]5(C)CC[C@H](O)C(C)(C)[C@@H]5CC[C@]43C)[C@H]12 [Compound 6, α-Amyrin, reference compound] | > 100 | 
CC(C)[C@@]12CC[C@]3(CO)CC[C@]4(C)C(=C31)C(C[C@@H]1[C@@]3(C)CC[C@H](O)C(C)(C)[C@@H]3CC[C@]14C)n1c(=O)n(-c3ccccc3)c(=O)n12 (stereo partly shown) [Compound 39] | 86 ± 0.4 | 
CC1(C)CC[C@]2(C(=O)O)CC[C@]3(C)C(=CC[C@@H]4[C@@]5(C)CC[C@H](O)[C@@](C)(CO)[C@@H]5CC[C@]43C)[C@@H]2C1 [Compound 9, Hederagenin, reference compound] | 78 ± 3 | hABHD12 inhibitory activity (in words) (hABHD12): did not inhibit hABHD12
C=C(C)[C@@H]1CC[C@]2(C(=O)O)CC[C@]3(C)[C@H](CC[C@@H]4[C@@]5(C)Cc6cccnc6C(C)(C)[C@@H]5CC[C@]43C)[C@@H]12 [Compound 41] |  | IC50 (hABHD12; [2]): 6.61 µM; IC50 (hABHD12; [3]): 6.7 µM; Emax (hABHD12; hABHD12-HEK293 lysates): 80%
C=C(C)[C@@H]1CC[C@]2(COC3CCCCO3)CC[C@]3(C)[C@H](CC[C@@H]4[C@@]5(C)CC[C@H](O)C(C)(C)[C@@H]5CC[C@]43C)[C@@H]12 (stereo partly shown) [Compound 29] | > 100 | 
CC1(C)CC[C@]23CC[C@]4(C)C(CC[C@@H]5[C@@]6(C)Cc7c([nH]c8ccc(F)cc78)C(C)(C)[C@@H]6CC[C@]54C)[C@H]2[C@H]1OC3 (stereo partly shown) [Compound 35] | > 100 | hABHD12 inhibitory activity (in words) (hABHD12): total loss of the inhibitory activity; inhibition at 10 µM (hMAGL): ~50%
C=C(C)[C@@H]1CC[C@]2(C(=O)O)CC[C@]3(C)[C@H](CC[C@@H]4[C@@]5(C)Cc6nccnc6C(C)(C)[C@@H]5CC[C@]43C)[C@@H]12 [Compound 42] |  | IC50 (hABHD12; [2]): 3.55 µM; IC50 (hABHD12; [3]): 3.6 µM; Emax (hABHD12; hABHD12-HEK293 lysates): 56%
C[C@H]1[C@H](C)CC[C@]2(C(=O)O)CC[C@]3(C)C(=CC[C@@H]4[C@@]5(C)C[C@@H](O)[C@H](O)[C@@](C)(CO)[C@@H]5CC[C@]43C)[C@H]12 [Compound 5, Asiatic acid, reference compound] | > 100 | hABHD12 inhibitory activity (in words) (hABHD12): did not inhibit hABHD12; also recorded: completely devoid of activity
C=C(C)[C@@H]1CC[C@]2(COC(=O)CCC(C)=O)CC[C@]3(C)[C@H](CC[C@@H]4[C@@]5(C)CC[C@H](O)C(C)(C)[C@@H]5CC[C@]43C)[C@@H]12 [Compound 27] | 85 ± 0.5 | 
C=C(C)[C@@H]1CC[C@]2(C(=O)O)CC[C@]3(C)[C@H](CC[C@@H]4[C@@]5(C)CC(O)C(O)C(C)(C)[C@@H]5CC[C@]43C)[C@@H]12 (stereo partly drawn) [Compound 32, 2β,3β-Dihydroxylup-20(29)-en-28-oic acid] |  | IC50 (hABHD12; [2]): 3.72 µM; Emax (hABHD12; hABHD12-HEK293 lysates): 100%
C=C(C)[C@@H]1CC[C@]2(COC(=O)CCC(C)=O)CC[C@]3(C)[C@H](CC[C@@H]4[C@@]5(C)CC[C@H](OC(=O)CCC(C)=O)C(C)(C)[C@@H]5CC[C@]43C)[C@@H]12 [Compound 28] | > 100 | 
COC(=O)[C@]1(C)CC[C@]2(C)CC[C@]3(C)C4=CC=C5C(=CC(=O)C(O)=C5C)[C@]4(C)CC[C@@]3(C)[C@@H]2C1 [Compound 15, Pristimerin, reference compound] |  | remaining activity at 10 µM (hABHD12): > 100%
C=C(C)[C@@H]1CC[C@]2(C(=O)O)CC[C@]3(C)[C@H](CC[C@@H]4[C@@]5(C)Cc6c[nH]nc6C(C)(C)[C@@H]5CC[C@]43C)[C@@H]12 [Compound 37] |  | IC50 (hABHD12; [2]): 1.45 µM; Emax (hABHD12; hABHD12-HEK293 lysates): 100%

Source: article PMC4045134, “Discovery of Triterpenoids as Reversible Inhibitors of α/β-hydrolase Domain Containing 12 (ABHD12)” (PLoS ONE, 2014)
